Experimental data from patent US20020115724A1, “Methods and agents for inhibiting protein aging” (priority 1985, published 2002).
Where a name gives a salt, the structure may show the parent alone. Read-outs that look alike come from different tables or passages of the source.

Key:
normal and diabetic rats = experiment: Aorta advanced glycosylation endproduct content (specific fluorescence of collagen); type: in vivo, rat; conditions: for Advanced glycosylation products: aorta, 25 mg/kg daily i.p., 16 weeks
Protocol: The experiment consisted of giving both normal and diabetic rats daily intraperitoneal doses of the agent aminoguanidine hydrochloride at a dose of 25 mg per kilogram of body weight, for a period of 16 weeks. […] Diabetes was induced prior to drug therapy with a single dose of streptozotocin. Control animals, both diabetic and normal, received no drug.
Aorta samples from the same groups of animals described in Example IV above were subjected to analysis for Advanced Glycosylation Endproducts (A.G.E.) content and solubility.
Aortas were finely minced with dissecting scissors, delipidated with 5 mL of chloroform: methanol (2:1), washed 5 times with buffer, and divided into aliquots for the following assessments of cross-linking:
(A) Specific fluorescence of collagen after complete solubilization by proteinase k and pepsin.
After treatment for the prescribed period, soluble material was separated from insoluble material by centrifugation (50,000× g, 1 hour), and all fractions were lyophilized and hydrolyzed in 6M HCl for determination of total hydroxyproline.

calf skin collagen = experiment: Calf skin collagen crosslinking by glucose: solubilization in 2% sodium dodecyl sulfate; type: biochemical; conditions: 140 mM glucose, 200 mM aminoguanidine, 3 weeks, 35° C.
Protocol: As a further evaluation of the compound aminoguanidine as a model for the prevention of protein trapping, crosslinking and formation of advanced glycosylation end products, the following experiment using calf skin collagen was performed. Collagen is a protein in the skin responsible for the suppleness of skin, and crosslinking leads to wrinkling, decreased elasticity, reduced susceptibility to proteolytic degradation, and other changes.
Collagen from samples of calf skin were extracted into acetic acid and then precipitated with 0.6 M sodium chloride. These procedures removed from the solution skin collagen that was already permanently crosslinked or denatured. Native collagen fibrils were reformed by dialysis against 0.02M phosphate buffer, and these were incubated for 3 weeks at 35° C. in the presence of 140 mM glucose and with or without 200 mM aminoguanidine. After incubation, the samples were dialyzed and the degree of crosslinking was determined by two methods. First, the amount of reacted collagen which could be solubilized by treatment in 2% sodium dodecyl sulfate at 100° C. was measured.

kidney = conditions: in vivo; cited from earlier work
[1] = tested on: streptozotocin-diabetic rat; conditions: streptozotocin-diabetic rat model; cited from earlier work
rats = conditions: hydrochloride, cited from earlier work; for toxicity in animals: in words
[2] = Irritation on intraperitoneal injection, salt compared with free base; type: in vivo
diabetic rats [3] = conditions: cited from earlier work
bovine serum albumin = experiment: Formation of fluorescent advanced glycosylation end products in albumin incubated with glucose; type: biochemical; conditions: 200 mM agent, 6 mg/mL BSA, 200 mM glucose, 37° C., two-week incubation, vs control
Protocol: To measure the ability of certain of the agents of the present invention to inhibit the production of advanced glycosylated end products in vitro, albumin and glucose were incubated together for two weeks in the presence of several test agents. Samples were taken at regular intervals for analysis. Advanced glycosylation end products were measured as appearance of fluorescent compounds, and early glycosylation products were measured by incorporation of radiolabeled glucose into albumin. Reaction conditions were as follows. […]
After the incubation periods, samples were treated as follows. After dialysis to remove all unbound glucose, the amount of protein present was measured with a standard dye-binding assay. The amount of glucose which became bound to the albumin, a measure of early glycosylation products, was determined by precipitating albumin with trichloroacetic acid and measuring the radioactivity of the bound glucose using scintillation counting.
The results of this experiment are expressed graphically in FIG. 1. For each sample, incorporation of radiolabeled glucose is indicated by the solid portion of the bar, and fluorescence is indicated in the open portion of the bar. All values are expressed as per milligram of albumin. […]

[4] = tested on: Streptozotocin-diabetic male Lewis rats; experiment: Tail tendon collagen solubility (pepsin), streptozotocin-diabetic rats; type: in vivo, rat; conditions: 9 months; for Collagen Solubility: tail tendon
Protocol: (§1) Streptozotocin-diabetic male Lewis rats were treated for a 9-month time period with daily doses of aminoguanidine hydrochloride of 0, 6.25, 12.5, 25, and 50 mg/kg/day. After the treatment period, collagen in tail tendon fiber was subjected to solubility determination. Ten mg samples were incubated with gentle rocking for 5 hours at 4° C. in 5 ml of 0.5M acetic acid containing 1 mg pepsin. The samples were then centrifuged at 50,000× g for 1 hour, and the soluble and insoluble fraction separated by decanting. Each fraction was hydrolyzed in 6N HCl and total hydroxyproline measured.

diabetic rats [5] = conditions: cited from earlier work; remark: listed apart in the source
BB/Worcester rat = experiment: Tail tendon collagen solubility (pepsin), BB/Worcester rats; type: in vivo; conditions: 6 months; for Collagen Solubility: tail tendon
Protocol: as §1
The effect of aminoguanidine administration on collagen cross-linking was examined in a genetically-diabetic animal model, the BB/Worcester rat. Once the animals become diabetic, daily insulin injections are essential for survival. Glucose levels are maintained at a moderate level (250-350 mg %), much lower than in the streptozotocin-diabetic animals (>500 mg %).
Diabetic and non-diabetic controls were treated orally with aminoguanidine hydrochloride at 12.5 and 50 mg/kg/day for 6 months. Control animals were dosed with water only. Tail tendon collagen solubility was then determined by the pepsin method described in Example IX.

## N=C(N)NN [aminoguanidine hydrochloride]
Normal and diabetic rats; diabetic rats
  Advanced glycosylation products: 4.5 ± 0.1 Specific fluorescence per mg hydroxyproline
Normal and diabetic rats; normal rats
  Advanced glycosylation products: 2.8 ± 0.1 Specific fluorescence per mg hydroxyproline
Normal and diabetic rats; treated diabetic rats vs untreated normal rats
  level of fluorescent advanced glycosylation products in aortic tissue relative to untreated normal rats: 1.3 times
Calf skin collagen
  solubility of reacted collagen in 2% sodium dodecyl sulfate at 100° C.: as soluble as collagen incubated in buffer alone
kidney
  immunoglobulin trapping in the kidney: reduction of immunoglobulin trapping in the kidney
[1]
  increased glomerular basement membrane thickness: prevented
rats
  toxicity in animals: low toxicity in animals
rats; listed as hydrochloride derivative
  toxicity in animals: very low toxicity
rats; subcutaneously, rats, listed as hydrochloride derivative
  LD50: 2984 mg/kg
[2]
  irritation compared with the parent free base: less irritating
Diabetic rats [3]
  kidney glomerular basement membrane protein crosslinking: diminishes kidney glomerular basement membrane protein crosslinking in diabetic rats
Bovine serum albumin
  formation of fluorescent compounds (advanced glycosylation end products): dramatically reduced by as much as eightfold
[4]; 6.25 up to 50 mg/kg/day orally
  prevention of the diabetes-induced fall in tail tendon collagen solubility: significantly prevented this change in a dose-dependent manner
[4]; highest dose (50 mg/kg/day orally)
  prevention of the diabetes induced cross-linking: 80%
[4]; Diabetic, 12.5 mg/kg/day
  Collagen Solubility: 66.7 ± 1.2%
[4]; Diabetic, 50 mg/kg/day
  Collagen Solubility: 75.9 ± 0.4%
[4]; Normal, 50 mg/kg/day
  Collagen Solubility: 88.2 ± 0.2%
Diabetic rats [5]
  increased cross-linking of collagen (tendon fiber breaking time in urea bath, mechanical strength): prevented
BB/Worcester rat; 12.5 and 50 mg/kg/day orally
  prevention of the diabetes-induced fall in tail tendon collagen solubility: prevented significantly, in a dose-dependent manner
BB/Worcester rat; Diabetic, 12.5 mg/kg/day orally
  Collagen Solubility: 66.7 ± 1.2%
BB/Worcester rat; Diabetic, 50 mg/kg/day orally
  Collagen Solubility: 75.9 ± 0.4%
BB/Worcester rat; Normal, 50 mg/kg/day orally
  Collagen Solubility: 88.2 ± 0.2%
